Test results published in patent US6315907A (priority 1997, dated 2001).

Tested on: TSST-1
Format: binding, Staphylococcus aureus

CCCCCCCCN [n-octylamine]
adsorption ability for TSST-1: enhanced to a great extent
